These results are taken from ChEMBL document CHEMBL1136672, “Synthesis and pharmacological activity of fluorescent histamine H1 receptor antagonists related to mepyramine” (Bioorg Med Chem Lett, 2003).

One test deals with Histamine H1 receptor (Cavia porcellus, UniProt P31389). Kind of test: Histamine H1 receptor antagonistic activity in guinea pig ileum […]. The format is functional, tissue-based. As to conditions: read-out: pA2 (converted).
The target of test [1] is Histamine H1 receptor (Homo sapiens) (UniProt P35367). As to conditions: U-373MG ATCC.
Histamine H1 receptor (Homo sapiens), sequence (P35367 whole entry): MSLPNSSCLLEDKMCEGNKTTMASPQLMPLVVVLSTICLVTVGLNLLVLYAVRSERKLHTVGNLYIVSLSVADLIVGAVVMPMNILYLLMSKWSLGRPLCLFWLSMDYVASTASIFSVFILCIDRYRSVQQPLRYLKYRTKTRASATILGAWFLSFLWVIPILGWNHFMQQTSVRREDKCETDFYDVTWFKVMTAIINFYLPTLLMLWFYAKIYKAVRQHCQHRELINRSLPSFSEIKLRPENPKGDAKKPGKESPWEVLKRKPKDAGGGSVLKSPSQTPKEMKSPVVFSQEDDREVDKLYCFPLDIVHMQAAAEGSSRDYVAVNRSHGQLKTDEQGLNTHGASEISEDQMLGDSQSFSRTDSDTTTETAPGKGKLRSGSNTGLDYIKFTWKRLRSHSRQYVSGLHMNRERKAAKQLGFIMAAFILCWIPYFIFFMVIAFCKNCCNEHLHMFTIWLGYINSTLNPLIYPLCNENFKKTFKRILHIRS
Description: Histamine H1 receptor antagonistic activity in U373MG human glioblastoma cells using fluorescence-labeled H1 as radioligand in Ca+2 assay

Histamine H1 receptor, sequence (P31389 whole entry): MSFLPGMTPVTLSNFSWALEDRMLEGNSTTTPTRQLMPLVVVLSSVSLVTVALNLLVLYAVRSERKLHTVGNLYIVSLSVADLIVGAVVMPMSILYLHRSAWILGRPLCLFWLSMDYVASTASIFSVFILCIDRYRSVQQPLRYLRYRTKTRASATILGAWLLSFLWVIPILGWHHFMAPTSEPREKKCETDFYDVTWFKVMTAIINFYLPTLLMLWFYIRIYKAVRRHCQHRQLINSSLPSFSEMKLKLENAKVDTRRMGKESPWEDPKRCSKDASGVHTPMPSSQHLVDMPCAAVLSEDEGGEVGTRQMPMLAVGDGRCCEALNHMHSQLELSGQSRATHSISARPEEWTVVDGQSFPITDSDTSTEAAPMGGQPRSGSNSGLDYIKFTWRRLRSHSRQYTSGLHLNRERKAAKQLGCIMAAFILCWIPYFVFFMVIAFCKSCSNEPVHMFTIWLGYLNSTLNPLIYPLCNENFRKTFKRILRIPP

On to `COc1ccc(CN(CCN(C)CCCCCCCCN)c2ccccn2)cc1`, for which the Kb on Histamine H1 receptor is 9.77 nM. In test [1], this molecule showed a pKB of 8.06.

`COc1ccc(CN(CCN(C)CCCCCCCCNC(=O)c2ccc(C(=O)O)c(-c3c4ccc(=O)cc-4oc4cc(O)ccc34)c2)c2ccccn2)cc1`: the Kb on Histamine H1 receptor is 5.01 nM. The same molecule had a pKB in test [1] of 8.53.

Regarding `COc1ccc(CN(CCN(C)CCCCNC(=O)c2ccc(C(=O)O)c(-c3c4ccc(=O)cc-4oc4cc(O)ccc34)c2)c2ccccn2)cc1`, the Kb on Histamine H1 receptor was 31.6 nM. The pKB in test [1] is 7.81.

Take `COc1ccc(CN(CCN(C)CCCCCCCCNC(=O)c2ccc(-c3c4ccc(=O)cc-4oc4cc(O)ccc34)c(C(=O)O)c2)c2ccccn2)cc1`: on Histamine H1 receptor, the Kb is 3.39 nM. The pKB in test [1] amounted to 8.94.

Regarding `COc1ccc(CN(CCN(C)CCCCCCN)c2ccccn2)cc1`, the Kb on Histamine H1 receptor is 12.9 nM. The negative-log KB (pKB) in test [1] was 8.03.

Take `COc1ccc(CN(CCN(C)CCCCCCNC(=O)c2ccc(-c3c4ccc(=[N+](C)C)cc-4oc4cc(N(C)C)ccc34)c(C(=O)[O-])c2)c2ccccn2)cc1`: the Kb on Histamine H1 receptor is 33.1 nM. For the same molecule, in test [1], the pKB is 7.54.

Turning to `COc1ccc(CN(CCN(C)CCCCNC(=O)c2ccc(-c3c4ccc(=O)cc-4oc4cc(O)ccc34)c(C(=O)O)c2)c2ccccn2)cc1`, the Kb on Histamine H1 receptor is 4.47 nM. This molecule also came in with a pKB in test [1] of 8.47.

For the molecule `COc1ccc(CN(CCN(C)CCCCCCNC(=O)c2ccc(-c3c4ccc5cc(O)ccc5c4oc4c3ccc3cc(=O)ccc34)c(C(=O)O)c2)c2ccccn2)cc1`, the Kb at Histamine H1 receptor was 36.3 nM. The pKB in test [1] was found to be 7.18.

Turning to `COc1ccc(CN(CCN(C)CCCCCCNC(=O)c2ccc(-c3c4ccc(=O)cc-4oc4cc(O)ccc34)c(C(=O)O)c2)c2ccccn2)cc1`, the Kb on Histamine H1 receptor was 21.4 nM. In test [1], this molecule registered a pKB of 8.17.

For `COc1ccc(CN(CCN(C)CCNc2ccc([N+](=O)[O-])c3n[o+][n-]c23)c2ccccn2)cc1`, the Kb at Histamine H1 receptor is 4.68 nM.

On to `COc1ccc(CN(CCN(C)CCCCCCNC(=O)c2ccc(C(=O)O)c(-c3c4ccc(=O)cc-4oc4cc(O)ccc34)c2)c2ccccn2)cc1`, for which the Kb at Histamine H1 receptor was 26.3 nM. The same molecule came in with a pKB in test [1] of 8.4.

Take `COc1ccc(CN(CCN(C)CCCCCCNC(=O)c2ccc(-c3c4ccc(=N)cc-4oc4cc(N)ccc34)c(C(=O)O)c2)c2ccccn2)cc1`: the Kb at Histamine H1 receptor is 26.3 nM. The same molecule gave a pKB in test [1] of 7.68.

In test [1], `COc1ccc(CN(CCN(C)CCNc2ccc([N+](=O)[O-])c3nonc23)c2ccccn2)cc1` came in with a pKB of 8.12.

Regarding `CNCCN(Cc1ccc(OC)cc1)c1ccccn1` [2-[(2-METHYLAMINOETHYL)(P-METHOXYBENZYL)AMINO]PYRIDINE], the Kb on Histamine H1 receptor was 6.61 nM. This molecule returned a pKB in test [1] of 8.12.

For `COc1ccc(CN(CCN(C)CCNC(=O)c2ccc(C(=O)O)c(-c3c4ccc(=O)cc-4oc4cc(O)ccc34)c2)c2ccccn2)cc1`, on Histamine H1 receptor, the Kb was 145 nM. Moreover, the pKB in test [1] was 6.93.

Regarding `COc1ccc(CN(CCN(C)CCCCN)c2ccccn2)cc1`, the Kb at Histamine H1 receptor was 22.4 nM. The pKB in test [1] was found to be 7.61.

As to `COc1ccc(CN(CCN(C)CCNC(=O)c2ccc(-c3c4ccc(=O)cc-4oc4cc(O)ccc34)c(C(=O)O)c2)c2ccccn2)cc1`, the Kb on Histamine H1 receptor was 69.2 nM. The same molecule had a pKB in test [1] of 7.21.

Consider `COc1ccc(CN(CCN(C)CCCCCCNS(=O)(=O)c2cccc3c(N(C)C)cccc23)c2ccccn2)cc1`, for which the Kb on Histamine H1 receptor is 17.8 nM. Moreover, the pKB in test [1] came out at 7.76.

On to `COc1ccc(CN(CCN(C)CCN)c2ccccn2)cc1`, for which the Kb on Histamine H1 receptor is 13.2 nM. The same molecule registered a pKB in test [1] of 7.84.

Consider `COc1ccc(CN(CCN(C)CCCCCCNC(=O)CCCCCNc2ccc([N+](=O)[O-])c3nonc23)c2ccccn2)cc1`, for which the Kb on Histamine H1 receptor is 1.95 nM. The negative logarithm of the KB (pKB) in test [1] was determined as 9.05.
